Experimental data reported in patent US10550155B2, “Anticancer peptides” (priority 2018, dated 2020).
Like-named read-outs stand apart in the source and are kept apart here. Where a SMILES comes first, the peptide text is derived from it. Bridges are numbered along the chain shown (N, C = ends). Roman numbers before positions name the chains, in order. Where no end group is shown, it is not given here. [ ]: non-standard residue; d: D form.

Tests used:
[1] = test system: MCF-7 human breast cancer cell line; test: MTT cytotoxicity assay, MCF-7 cells; assay type: cell-based
Procedure: (§1) The cytotoxic as well as antiproliferative effect of peptides was determined using MTT [3-(4, 5-dimethylthiazol-2-yl)-2, 5-diphenyl tetrazolium bromide] colorimetric assay. MCF-7, NIH-3T3, HeLa and H460 cells were cultured and after confluency, cells were used to test the cytotoxicity by MTT assay. Briefly (3×10^4/mL) of MCF-7 and (2×10^4/mL) cells of NIH-3T3, HeLa and H460 were seeded in 96-wells plate and incubated at 37° C. in 5% CO2 for 24 h. The MCF-7 cells were then treated with different doses of peptides and re-incubated in 5% CO2 at 37° C. for 48 hours. […] Experiment was performed three times and all doses were repeated in triplicate and the calculations were done using formula for percent inhibition.

HeLa cells = test: MTT cytotoxicity assay, HeLa cells; assay type: cell-based
Procedure: as §1

[2] = MTT cytotoxicity assay, 3T3 cells; assay type: cell-based, mouse; conditions: mouse; for IC50: Cytotoxicity IC50, 3T3
Procedure: as §1

[3] = test system: NIH-3T3 murine fibroblast cell line; test: MTT cytotoxicity assay, 3T3 cells; assay type: cell-based, mouse
Procedure: as §1

H460 cells = test: MTT cytotoxicity assay, H460 cells; assay type: cell-based
Procedure: as §1

[4] = test system: DoHH2 cells (B-cell lymphoma); test: Alamar blue viability assay, DoHH2 cells; assay type: cell-based
Procedure: The viability of DoHH2 cells was determined by Alamar blue assay. Briefly 200 μl of 1×10^5 cells/ml were incubated with different concentrations of compounds for 24 hours. A one-tenth volume of Alamar blue was then added and the incubation continued for 4 hrs. Absorbance was read in spectrophotometer at wavelengths of 570 nm and 600 nm.

human erythrocytes = conditions: cited from earlier work
[5] = test system: bacteria, yeasts, fungi, and protozoa; conditions: cited from earlier work
fibroblasts = conditions: cited from earlier work
THP-1 monocytes = conditions: cited from earlier work
[6] = test system: Leishmania infantum promastigote and amastigote; conditions: cited from earlier work
[7] = test system: THP-1-derived macrophages; conditions: cited from earlier work
MCF-7 cells = test: Cell-growth on bead assay; assay type: cell-based, human; conditions: peptide on bead
HepG2 cells = conditions: cited from earlier work
[8] = MTT, 48 hours, read-out: Cytotoxicity IC50, MCF-7
[9] = MTT, 48 hours, read-out: Cytotoxicity IC50, HeLa
[10] = MTT, 48 hours, read-out: Cytotoxicity IC50, H460
[11] = Alamar blue, 24 hours, read-out: Cytotoxicity IC50, DoHH2

## COc1cccc2c1C(=O)c1c(O)c3c(c(O)c1C2=O)C[C@@](O)(C(=O)CO)C[C@@H]3O[C@H]1C[C@H](N)[C@H](O)[C@H](C)O1 [Doxorubicin, reference compound]
[1]; Homo sapiens, MCF7, 48 h, read-out: Cytotoxicity IC50, MCF-7
  IC50: 1.6 ± 0.2 µM
HeLa cells; Homo sapiens, HeLa, 48 h, read-out: Cytotoxicity IC50, HeLa
  IC50: 5.7 ± 0.36 µM

## CC[C@H](C)[C@H](NC(=O)[C@@H](C)NC(=O)[C@H](CO)NC(=O)[C@H](CC(C)C)NC(=O)[C@@H](N)Cc1ccccc1)C(=O)N[C@H](C(=O)NCC(=O)N[C@@H](CCSC)C(=O)N[C@@H](CC(C)C)C(=O)NCC(=O)N[C@@H](CCCCN)C(=O)N[C@@H](CC(C)C)C(=O)N[C@@H](Cc1ccccc1)C(N)=O)C(C)C [compound 2, F-L-S-a-I-V-G-M-L-G-K-L-F] (H-FLS[dA]IVGMLGKLF-NH2)
[1]; [8]
  IC50: 17.9 ± 1.1 µM
HeLa cells; [9]
  IC50: > 100 µM
[2]
  IC50: > 100 µM
[3]
  Cytotoxicity against 3T3 cell line (in words): inactive
H460 cells; [10]
  IC50: > 100 µM
[4]; [11]
  IC50: > 100 µM

## CC[C@H](C)[C@H](NC(=O)CNC(=O)[C@H](CO)NC(=O)[C@H](CC(C)C)NC(=O)[C@@H](N)Cc1ccccc1)C(=O)N[C@H](C(=O)N[C@H](C)C(=O)N[C@@H](CCSC)C(=O)N[C@@H](CC(C)C)C(=O)NCC(=O)N[C@@H](CCCCN)C(=O)N[C@@H](CC(C)C)C(=O)N[C@@H](Cc1ccccc1)C(N)=O)C(C)C [compound 3, F-L-S-G-I-V-a-M-L-G-K-L-F] (H-FLSGIV[dA]MLGKLF-NH2)
[1]; human, 48 h
  IC50: 22.4 ± 2.2 µM
HeLa cells; human, 48 h
  IC50: > 100 µM
[2]
  IC50 at 48 h: > 100 µM
[3]
  Cytotoxicity against 3T3 cell line (in words): inactive
H460 cells; human, 48 h
  IC50: > 100 µM
[4]; human, 24 h
  IC50: > 100 µM

## CC[C@H](C)[C@H](NC(=O)[C@@H](C)NC(=O)[C@H](CO)NC(=O)[C@H](CC(C)C)NC(=O)[C@@H](N)Cc1ccccc1)C(=O)N[C@H](C(=O)N[C@H](C)C(=O)N[C@@H](CCSC)C(=O)N[C@@H](CC(C)C)C(=O)NCC(=O)N[C@@H](CCCCN)C(=O)N[C@@H](CC(C)C)C(=O)N[C@@H](Cc1ccccc1)C(N)=O)C(C)C [compound 5, F-L-S-a-I-V-a-M-L-G-K-L-F] (H-FLS[dA]IV[dA]MLGKLF-NH2)
[1]; human, 48 h
  IC50: 29.5 ± 6.03 µM
HeLa cells; human, 48 h
  IC50: > 100 µM
[2]
  IC50 at 48 h: > 100 µM
[3]
  Cytotoxicity against 3T3 cell line (in words): no cytotoxicity
H460 cells; human, 48 h
  IC50: 37.3 ± 3.5 µM
[4]; human, 24 h
  IC50: > 100 µM

## CC[C@H](C)[C@H](NC(=O)[C@@H](C)NC(=O)[C@H](CO)NC(=O)[C@H](CC(C)C)NC(=O)[C@@H](N)Cc1ccccc1)C(=O)N[C@H](C(=O)N[C@H](C)C(=O)N[C@@H](CCSC)C(=O)N[C@@H](CC(C)C)C(=O)N[C@H](C)C(=O)N[C@@H](CCCCN)C(=O)N[C@@H](CC(C)C)C(=O)N[C@@H](Cc1ccccc1)C(N)=O)C(C)C [compound 6, F-L-S-a-I-V-a-M-L-a-K-L-F] (H-FLS[dA]IV[dA]ML[dA]KLF-NH2)
[1]; human, 48 h
  IC50: 26.3 ± 5.8 µM
HeLa cells; human, 48 h
  IC50: > 100 µM
[2]
  IC50 at 48 h: > 100 µM
[3]
  Cytotoxicity against 3T3 cell line (in words): inactive
H460 cells; human, 48 h
  IC50: > 100 µM
[4]; human, 24 h
  IC50: > 100 µM

## CC[C@H](C)[C@H](NC(=O)CNC(=O)[C@H](CO)NC(=O)[C@H](CC(C)C)NC(=O)[C@@H](N)Cc1ccccc1)C(=O)N[C@H](C(=O)NCC(=O)N[C@@H](CCSC)C(=O)N[C@@H](CC(C)C)C(=O)N[C@H](C)C(=O)N[C@@H](CCCCNC(=O)[C@H](CC(C)C)NC(=O)[C@H](Cc1ccccc1)NC(=O)[C@H](CCCCN)NC(=O)[C@H](CCC(N)=O)NC(=O)[C@H](Cc1ccc(O)cc1)NC(=O)[C@H](C)NC(=O)[C@H](C)NC(=O)[C@H](CCC(=O)O)NC(=O)[C@H](CC(C)C)NC(=O)[C@@H](N)Cc1c[nH]c2ccccc12)C(=O)N[C@@H](CC(C)C)C(=O)N[C@@H](Cc1ccccc1)C(N)=O)C(C)C [conjugate 7] (I: H-FLSGIVGML[dA]KLF-NH2 / II: H-WLEAAYQKFL; amide I:11-II:C)
HeLa cells; human, 48 h
  IC50: > 100 µM
[2]
  IC50 at 48 h: > 100 µM
H460 cells; human, 48 h
  IC50: > 100 µM
[4]; human, 24 h
  IC50: > 100 µM

## CC[C@H](C)[C@H](NC(=O)CNC(=O)[C@H](CO)NC(=O)[C@H](CC(C)C)NC(=O)[C@@H](N)Cc1ccccc1)C(=O)N[C@H](C(=O)NCC(=O)N[C@@H](CCSC)C(=O)N[C@@H](CC(C)C)C(=O)N[C@H](C)C(=O)N[C@@H](CCCCN)C(=O)N[C@@H](CC(C)C)C(=O)N[C@@H](Cc1ccccc1)C(=O)N[C@@H](CCCCNC(=O)[C@H](CCCCNC(=O)[C@H](CC(C)C)NC(=O)[C@H](Cc1ccccc1)NC(=O)[C@H](CCCCN)NC(=O)[C@H](CCC(N)=O)NC(=O)[C@H](Cc1ccc(O)cc1)NC(=O)[C@H](C)NC(=O)[C@H](C)NC(=O)[C@H](CCC(=O)O)NC(=O)[C@H](CC(C)C)NC(=O)[C@@H](N)Cc1c[nH]c2ccccc12)NC(=O)[C@H](Cc1ccccc1)NC(=O)[C@H](CC(C)C)NC(=O)[C@H](CCCCN)NC(=O)[C@@H](C)NC(=O)[C@H](CC(C)C)NC(=O)[C@H](CCSC)NC(=O)CNC(=O)[C@@H](NC(=O)[C@@H](NC(=O)CNC(=O)[C@H](CO)NC(=O)[C@H](CC(C)C)NC(=O)[C@@H](N)Cc1ccccc1)[C@@H](C)CC)C(C)C)C(N)=O)C(C)C [conjugate 8] (I: H-FLSGIVGML[dA]KLFK-NH2 / II: H-FLSGIVGML[dA]KLFK / III: H-WLEAAYQKFL; amide I:14-II:C, II:14-III:C (inferred); N-terminus assumed)
[1]; human, 48 h
  IC50: 1.7 µM
HeLa cells; MTT
  Activity against HeLa cell line (in words): active
HeLa cells; human, 48 h
  IC50: 8.7 ± 0.65 µM
[2]
  IC50 at 48 h: > 100 µM
[3]
  Cytotoxicity against 3T3 cell line (in words): no cytotoxicity
H460 cells; MTT
  Activity against H460 cell line (in words): active
H460 cells; human, 48 h
  IC50: 14.3 ± 0.7 µM
[4]; human, 24 h
  IC50: > 100 µM

## CC[C@H](C)[C@H](NC(=O)CNC(=O)[C@H](CO)NC(=O)[C@H](CC(C)C)NC(=O)[C@@H](N)Cc1ccccc1)C(=O)N[C@H](C(=O)NCC(=O)N[C@@H](CCSC)C(=O)N[C@@H](CC(C)C)C(=O)NCC(=O)N[C@@H](CCCCN)C(=O)N[C@@H](CC(C)C)C(=O)N[C@@H](Cc1ccccc1)C(N)=O)C(C)C [peptide 1, F-L-S-G-I-V-G-M-L-G-K-L-F, reference compound] (H-FLSGIVGMLGKLF-NH2)
[1]; MTT
  Activity against MCF-7 cell line (in words): active
[1]; [8]
  IC50: 14.5 ± 0.57 µM
HeLa cells; MTT
  Activity against HeLa cell line (in words): active
HeLa cells; [9]
  IC50: 18.4 ± 0.92 µM
Human erythrocytes
  Cytotoxicity on human erythrocytes (literature): low cytotoxicity
[5]
  Antimicrobial / antibacterial activity (literature): potent inhibitor
fibroblasts
  Cytotoxicity on fibroblasts (literature): no cytotoxicity
[2]
  IC50: 73.3 ± 0.07 µM
THP-1 monocytes
  Cytotoxicity on THP-1 monocytes (literature): low cytotoxicity
[6]
  Antiparasitic activity (literature): antiparasitic activity
[7]
  Cytotoxicity on THP-1-derived macrophages (literature): low cytotoxicity
H460 cells; MTT
  Activity against H460 cell line (in words): active
H460 cells; [10]
  IC50: 34.5 ± 1.5 µM
[4]; Alamar blue
  Activity against DoHH2 cell line (in words): no cytotoxicity
[4]; [11]
  IC50: > 100 µM

## CC[C@H](C)[C@H](NC(=O)CNC(=O)[C@H](CO)NC(=O)[C@H](CC(C)C)NC(=O)[C@@H](N)Cc1ccccc1)C(=O)N[C@H](C(=O)NCC(=O)N[C@@H](CCSC)C(=O)N[C@@H](CC(C)C)C(=O)N[C@H](C)C(=O)N[C@@H](CCCCN)C(=O)N[C@@H](CC(C)C)C(=O)N[C@@H](Cc1ccccc1)C(N)=O)C(C)C [peptide 4, F-L-S-G-I-V-G-M-L-a-K-L-F] (H-FLSGIVGML[dA]KLF-NH2)
[1]; MTT, 48 hours, listed as SEQ ID NO: 4, read-out: Cytotoxicity IC50, MCF-7
  IC50: 16 to 24 µM
[1]; [8]
  IC50: 16.2 ± 2.2 µM
HeLa cells; MTT, 48 hours, listed as SEQ ID NO: 4, read-out: Cytotoxicity IC50, HeLa
  IC50: 16 to 24 µM
HeLa cells; [9]
  IC50: 22.7 ± 0.86 µM
[2]
  IC50: 16 to 24 µM
[3]
  Cytotoxicity against 3T3 cell line (in words): cytotoxic
[3]; mouse
  IC50: 16 ± 3.7 µM
H460 cells; MTT, 48 hours, listed as SEQ ID NO: 4, read-out: Cytotoxicity IC50, H460
  IC50: 16 to 24 µM
H460 cells; [10]
  IC50: 24.3 ± 0.84 µM
[4]; [11]
  IC50: > 100 µM

## WLEAAYQKFL (not fully specified) [peptide A, breast cancer targeting peptide ligand]
MCF-7 cells
  Binding to MCF-7 cells: strong binding

## [A^2,6,9, K^3] temporin-SHa [[A^2,6,9, K^3] SHa]
HepG2 cells
  Cytotoxicity on HepG2 cells (literature): inactive
[5]
  Antimicrobial / antibacterial activity (literature): lack the antibacterial and antiparasitic activity
THP-1 monocytes
  Cytotoxicity on THP-1 monocytes (literature): inactive
[6]
  Antiparasitic activity (literature): lack the antibacterial and antiparasitic activity

## [A^2,6,9] temporin-SHa [[A^2,6,9] SHa]
HepG2 cells
  Cytotoxicity on HepG2 cells (literature): inactive
[5]
  Antimicrobial / antibacterial activity (literature): lack the antibacterial and antiparasitic activity
THP-1 monocytes
  Cytotoxicity on THP-1 monocytes (literature): inactive
[6]
  Antiparasitic activity (literature): lack the antibacterial and antiparasitic activity

## [K^3] temporin-SHa
[5]
  Antimicrobial / antibacterial activity (literature): more potent antimicrobial activity than temporin-SHa
